These results are taken from US20200292529A1, “NEW DRUG SCREENING ASSAY USING REGULATORY MACROPHAGES” (Universität Regensburg, priority 2017, published 2020).

Entries after “also recorded” stand apart in the source; their conditions may differ.

Experiment [1] deals with Foxp3+CD25+ iTreg cells. Briefly: Mreg co-culture with naïve CD4+ T cells in lidded FACS tubes, iTreg analysis by flow cytometry. To be noted: tacrolimus 1 nM to 10 μM during co-culture; n=3 donors; FIG. 1. Type of experiment: cell-based, human. On the procedure:
(§1) A preparation of human Mregs (“Mreg B”) was prepared in 75 cm^2 flasks according to a modified protocol of Hutchinson. Peripheral blood mononuclear cells (PBMC) were obtained from a healthy donor for use as starting material for Mreg generation. The donor was screened for relevant disease markers, including infectious diseases, not more than 30 days prior to collection of PBMC. The donor was re-screened for the same disease markers on the day of leucocyte donation. PBMC were obtained by leukapheresis using the Spectra Optia® device. Human Mregs can also be generated from leukapheresates collected with alternative devices or from whole blood samples. PBMC from leukapheresis products were further purified by Ficoll-gradient centrifugation. CD14^+ monocytes were isolated from Ficoll-separated, washed PBMC by positive magnetic bead selection using research-grade CD14 microbeads (Miltenyi Biotec, GmbH) in accordance with the manufacturer's instructions. The preparation of isolated monocytes was quality-controlled for viability and purity of CD14^+ cells and contamination with CD3^+ T cells by flow cytometry. Isolated monocytes were resuspended in Mreg culture medium at a density of 7.5×10^5 viable monocytes/ml then plated in Cell+T75 flasks (Sarstedt) at 2×10^5 viable monocytes/cm^2 in a total volume of 20 ml medium. […]

The subject of experiment [2] is Foxp3+CD25+ iTreg cells. Briefly: Mreg-induced iTreg assay: Mreg co-culture with allogeneic CD3+ T cells in 96 well plates. Type of experiment: cell-based. To be noted: recombinant human IFN-γ 0-100 ng/ml during co-culture; n=8 donors; p<0.0001; FIG. 6. The protocol:
as §1

Regarding `C=CC[C@@H]1/C=C(\C)C[C@H](C)C[C@H](OC)[C@H]2O[C@@](O)(C(=O)C(=O)N3CCCC[C@H]3C(=O)O[C@H](/C(C)=C/[C@@H]3CC[C@@H](O)[C@H](OC)C3)[C@H](C)[C@@H](O)CC1=O)[C@H](C)C[C@@H]2OC` [tacrolimus], in experiment [1], the “Mreg-mediated iTreg generation (Foxp3+CD25+ iTreg cells)” value was “inhibited the formation of Foxp3+CD25+ iTreg cells in a dose-dependent manner; also recorded: potently suppressed iTreg generation in a dose-dependent manner”.

B1: IFN-γ: recombinant human interferon gamma added to Mreg-T cell co-cultures (protein, UniProt P01579 24-161, looked up)
Interferon gamma: QDPYVKEAENLKKYFNAGHSDVADNGTLFLGILKNWKEESDRKIMQSQIVSFYFKLFKNFKDDQSIQKSVETIKEDMNVKFFNSNKKKRDDFEKLTNYSVTDLNVQRKAIHELIQVMAELSPAAKTGKRKRSQMLFRG
Consider B1, for which the “iTreg generation versus IFN-γ concentration in the co-culture phase (linear regression)” value in experiment [2] was “significant dose-dependent relationship”.
